{"source": "ChEMBL document CHEMBL5528049", "about": "“Discovery of (4-Pyrazolyl)-2-aminopyrimidines as Potent and Selective Inhibitors of Cyclin-Dependent Kinase 2” (J Med Chem, 2024)", "key": {"[1]": {"experiment": "Volume of distribution at steady state in cynomolgus monkey at 0.3 mg/kg, iv administered as cassette dose and measured upto 24 hrs by LC-MS/MS analysis", "type": "ADME, organism-based, Macaca fascicularis", "conditions": "in vivo, read-out: Vdss"}, "[2]": {"experiment": "Toxicity in athymic nude mouse xenografted with human OVCAR-3 cells assessed as animal death at 30 mg/kg, po administered once daily for 28 days", "type": "organism-based", "conditions": "in vivo, 672 h, time 28 day"}, "[3]": {"experiment": "Toxicity in athymic nude mouse xenografted with human OVCAR-3 cells assessed as adverse effect at 30 mg/kg, po administered once daily for 28 days", "type": "organism-based", "conditions": "in vivo, 672 h, time 28 day"}, "[4]": {"experiment": "Cmax in Sprague-Dawley rat at 3 mg/kg, po administered as cassette dose and measured upto 24 hrs by LC-MS/MS analysis", "type": "ADME, organism-based", "conditions": "in vivo"}, "[5]": {"experiment": "Protein binding in human plasma assessed as free fraction incubated for 2 hrs by LC-MS/MS analysis", "type": "ADME, cell-free"}, "[6]": {"experiment": "Apparent permeability from apical to basolateral side in human Caco-2 cells at 50 uM incubated for 120 mins by LCMS analysis"}, "[7]": {"molecular_target": "hERG (KCNH2) (Homo sapiens, UniProt Q12809)", "sequence (Q12809 whole entry)": "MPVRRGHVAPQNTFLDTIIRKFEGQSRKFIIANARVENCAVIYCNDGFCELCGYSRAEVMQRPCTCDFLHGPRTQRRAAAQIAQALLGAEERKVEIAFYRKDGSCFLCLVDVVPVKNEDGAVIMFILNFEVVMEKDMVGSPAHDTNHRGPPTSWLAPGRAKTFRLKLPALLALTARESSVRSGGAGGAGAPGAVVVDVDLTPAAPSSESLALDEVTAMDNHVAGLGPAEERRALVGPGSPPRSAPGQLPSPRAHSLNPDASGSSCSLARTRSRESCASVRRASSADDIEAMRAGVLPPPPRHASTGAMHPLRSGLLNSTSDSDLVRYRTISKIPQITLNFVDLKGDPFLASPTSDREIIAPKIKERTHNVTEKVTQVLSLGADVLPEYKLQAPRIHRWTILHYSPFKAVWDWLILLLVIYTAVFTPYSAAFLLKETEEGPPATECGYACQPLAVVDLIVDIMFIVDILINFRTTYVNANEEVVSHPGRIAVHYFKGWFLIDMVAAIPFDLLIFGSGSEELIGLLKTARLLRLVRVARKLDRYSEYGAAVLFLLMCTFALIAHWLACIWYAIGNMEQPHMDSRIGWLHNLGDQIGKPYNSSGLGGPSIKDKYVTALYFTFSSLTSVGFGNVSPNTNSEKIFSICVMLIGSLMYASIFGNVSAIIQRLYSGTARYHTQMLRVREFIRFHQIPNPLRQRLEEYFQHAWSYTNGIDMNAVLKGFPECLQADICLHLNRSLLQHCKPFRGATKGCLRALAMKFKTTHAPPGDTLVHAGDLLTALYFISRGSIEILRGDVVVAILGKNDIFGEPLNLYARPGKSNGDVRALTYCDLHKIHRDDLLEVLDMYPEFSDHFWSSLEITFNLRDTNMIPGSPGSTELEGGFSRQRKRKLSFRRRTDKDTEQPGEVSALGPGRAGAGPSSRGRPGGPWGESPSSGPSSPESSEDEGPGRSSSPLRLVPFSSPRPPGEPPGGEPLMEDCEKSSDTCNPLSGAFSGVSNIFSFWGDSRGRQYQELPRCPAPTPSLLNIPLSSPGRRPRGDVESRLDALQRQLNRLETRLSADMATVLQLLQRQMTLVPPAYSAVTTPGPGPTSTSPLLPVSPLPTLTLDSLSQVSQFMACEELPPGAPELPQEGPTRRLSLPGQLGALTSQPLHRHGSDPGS", "experiment": "Inhibition of human ERG at 10 uM by patch clamp method relative to control", "type": "toxicity"}, "[8]": {"experiment": "Cmax in cynomolgus monkey at 2 mg/kg, po administered as cassette dose and measured upto 24 hrs by LC-MS/MS analysis", "type": "ADME, organism-based, Macaca fascicularis", "conditions": "in vivo"}, "[9]": {"test_system": "OVCAR-3", "experiment": "Antitumor activity against human OVCAR-3 cells xenografted in athymic nude mouse assessed as tumor growth inhibition at 30 mg/kg, po administered once daily for 28 days relative to control", "type": "functional", "conditions": "OVCAR-3, 672 h, time 28 day, read-out: TGI"}, "[10]": {"molecular_target": "Cytochrome P450 2C19 (Homo sapiens, UniProt P33261)", "sequence (P33261 whole entry)": "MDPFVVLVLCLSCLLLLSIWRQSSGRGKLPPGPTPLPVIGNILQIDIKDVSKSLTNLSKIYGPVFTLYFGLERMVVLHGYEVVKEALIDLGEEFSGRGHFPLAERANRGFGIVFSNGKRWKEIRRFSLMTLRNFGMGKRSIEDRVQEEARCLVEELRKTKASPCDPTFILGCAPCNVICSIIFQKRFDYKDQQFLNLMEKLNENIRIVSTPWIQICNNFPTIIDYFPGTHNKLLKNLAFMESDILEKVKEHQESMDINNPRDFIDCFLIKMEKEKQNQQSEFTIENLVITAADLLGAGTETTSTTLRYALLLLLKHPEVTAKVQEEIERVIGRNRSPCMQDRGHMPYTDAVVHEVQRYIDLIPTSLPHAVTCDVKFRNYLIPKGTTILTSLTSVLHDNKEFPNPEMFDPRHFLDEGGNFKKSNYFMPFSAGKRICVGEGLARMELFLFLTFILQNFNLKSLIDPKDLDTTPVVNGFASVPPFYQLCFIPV", "experiment": "Inhibition of CYP2C19 in human liver microsomes using S-mephenytoin as substrate in presence of NADPH by LC-MS/MS analysis", "type": "ADME, Microsome"}, "[11]": {"experiment": "Hepatic blood flow in cynomolgus monkey at 0.3 mg/kg, iv administered as cassette dose and measured upto 24 hrs by LC-MS/MS analysis", "type": "ADME, organism-based, Macaca fascicularis", "conditions": "in vivo"}, "[12]": {"experiment": "Toxicity in athymic nude mouse xenografted with human OVCAR-3 cells assessed as body weight loss at 30 mg/kg, po administered once daily for 28 days", "type": "organism-based", "conditions": "in vivo, 672 h, time 28 day"}, "[13]": {"experiment": "Half-life in Sprague-Dawley rat at 0.5 mg/kg, iv administered as cassette dose and measured upto 24 hrs by LC-MS/MS analysis", "type": "ADME, organism-based", "conditions": "in vivo"}, "[14]": {"molecular_target": "Cytochrome P450 2C9 (Homo sapiens, UniProt P11712)", "sequence (P11712 whole entry)": "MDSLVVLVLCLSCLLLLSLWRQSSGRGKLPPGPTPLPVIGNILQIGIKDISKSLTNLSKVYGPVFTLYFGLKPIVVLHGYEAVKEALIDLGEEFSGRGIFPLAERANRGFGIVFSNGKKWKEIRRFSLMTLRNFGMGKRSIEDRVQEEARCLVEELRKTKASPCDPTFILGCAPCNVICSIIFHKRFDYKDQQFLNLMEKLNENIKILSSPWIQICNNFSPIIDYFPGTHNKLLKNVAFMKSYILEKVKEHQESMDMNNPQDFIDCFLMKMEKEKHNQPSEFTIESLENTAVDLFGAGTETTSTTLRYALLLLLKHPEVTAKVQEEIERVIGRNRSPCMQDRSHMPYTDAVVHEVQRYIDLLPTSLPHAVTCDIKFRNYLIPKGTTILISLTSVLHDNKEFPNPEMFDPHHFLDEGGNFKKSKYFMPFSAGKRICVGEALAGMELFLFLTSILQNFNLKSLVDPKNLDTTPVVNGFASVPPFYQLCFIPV", "experiment": "Inhibition of CYP2C9 in human liver microsomes using diclofenac as substrate in presence of NADPH by LC-MS/MS analysis", "type": "ADME, Microsome"}, "[15]": {"experiment": "Oral bioavailability in Sprague-Dawley rat at 3 mg/kg administered as cassette dose and measured upto 24 hrs by LC-MS/MS analysis", "type": "ADME, organism-based", "conditions": "in vivo"}, "[16]": {"experiment": "Solubility of compound in SGF by HPLC analysis"}, "[17]": {"molecular_target": "T1, Cytochrome P450 2B6 (Homo sapiens, UniProt P20813)", "T1 sequence (P20813 whole entry)": "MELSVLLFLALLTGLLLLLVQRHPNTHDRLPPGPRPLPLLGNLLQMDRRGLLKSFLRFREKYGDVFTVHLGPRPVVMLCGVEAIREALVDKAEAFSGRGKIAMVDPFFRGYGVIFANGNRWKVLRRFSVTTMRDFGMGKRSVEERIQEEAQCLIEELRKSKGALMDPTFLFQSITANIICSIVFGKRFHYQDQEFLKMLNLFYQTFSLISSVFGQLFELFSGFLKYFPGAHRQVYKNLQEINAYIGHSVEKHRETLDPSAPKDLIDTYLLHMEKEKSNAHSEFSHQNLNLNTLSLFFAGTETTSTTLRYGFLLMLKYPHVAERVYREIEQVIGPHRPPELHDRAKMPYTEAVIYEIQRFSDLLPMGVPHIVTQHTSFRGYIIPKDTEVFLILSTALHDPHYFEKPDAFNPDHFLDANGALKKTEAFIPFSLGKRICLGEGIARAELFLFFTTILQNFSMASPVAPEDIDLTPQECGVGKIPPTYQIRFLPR", "experiment": "Inhibition of CYP2B6 in human liver microsomes using bupropion as substrate in presence of NADPH by LC-MS/MS analysis", "type": "ADME, Microsome"}, "[18]": {"experiment": "Volume of distribution at steady state in Sprague-Dawley rat at 0.5 mg/kg, iv administered as cassette dose and measured upto 24 hrs by LC-MS/MS analysis", "type": "ADME, organism-based", "conditions": "in vivo, read-out: Vdss"}, "[19]": {"molecular_target": "T2, Cytochrome P450 1A2 (Homo sapiens, UniProt P05177)", "T2 sequence (P05177 whole entry)": "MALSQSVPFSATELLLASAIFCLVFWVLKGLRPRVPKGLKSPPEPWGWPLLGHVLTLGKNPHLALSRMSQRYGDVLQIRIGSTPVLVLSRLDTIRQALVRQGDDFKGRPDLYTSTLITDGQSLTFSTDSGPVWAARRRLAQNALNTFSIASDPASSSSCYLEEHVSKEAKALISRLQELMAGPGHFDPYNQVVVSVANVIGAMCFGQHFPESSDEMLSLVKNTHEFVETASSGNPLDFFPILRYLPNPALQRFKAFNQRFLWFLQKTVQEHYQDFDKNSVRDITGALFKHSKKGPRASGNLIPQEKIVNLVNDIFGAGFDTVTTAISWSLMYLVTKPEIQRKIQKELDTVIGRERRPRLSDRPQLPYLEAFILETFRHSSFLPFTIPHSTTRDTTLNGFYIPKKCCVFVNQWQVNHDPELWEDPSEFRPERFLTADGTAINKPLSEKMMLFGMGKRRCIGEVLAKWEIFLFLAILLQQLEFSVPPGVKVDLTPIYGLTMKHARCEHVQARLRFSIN", "experiment": "Inhibition of CYP1A2 in human liver microsomes using 7-ethoxyresorufin as substrate in presence of NADPH by LC-MS/MS analysis", "type": "ADME, Microsome"}, "[20]": {"experiment": "AUC in cynomolgus monkey at 2 mg/kg, po administered as cassette dose and measured upto 24 hrs by LC-MS/MS analysis", "type": "ADME, organism-based, Macaca fascicularis", "conditions": "in vivo"}, "[21]": {"experiment": "AUC in Sprague-Dawley rat at 3 mg/kg, po administered as cassette dose and measured upto 24 hrs by LC-MS/MS analysis", "type": "ADME, organism-based", "conditions": "in vivo"}, "[22]": {"molecular_target": "Cytochrome P450 3A4 (Homo sapiens, UniProt P08684)", "sequence (P08684 whole entry)": "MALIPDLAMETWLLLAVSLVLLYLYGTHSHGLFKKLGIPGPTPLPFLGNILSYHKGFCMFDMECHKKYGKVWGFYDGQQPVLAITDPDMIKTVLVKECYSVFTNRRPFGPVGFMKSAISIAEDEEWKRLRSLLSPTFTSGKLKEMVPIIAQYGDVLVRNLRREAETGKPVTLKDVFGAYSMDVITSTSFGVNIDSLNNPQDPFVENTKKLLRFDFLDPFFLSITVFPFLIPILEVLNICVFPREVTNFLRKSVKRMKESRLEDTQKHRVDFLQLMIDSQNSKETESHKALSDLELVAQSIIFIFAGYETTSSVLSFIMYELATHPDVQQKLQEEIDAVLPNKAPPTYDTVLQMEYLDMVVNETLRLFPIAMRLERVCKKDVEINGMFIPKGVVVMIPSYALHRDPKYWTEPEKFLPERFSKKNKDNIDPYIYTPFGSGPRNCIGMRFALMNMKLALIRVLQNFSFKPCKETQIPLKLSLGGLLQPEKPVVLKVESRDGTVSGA", "experiment": "Inhibition of CYP3A4 in human liver microsomes using midazolam/testosterone as substrate in presence of NADPH by LC-MS/MS analysis", "type": "ADME, Microsome"}, "[23]": {"experiment": "Half-life in cynomolgus monkey at 0.3 mg/kg, iv administered as cassette dose and measured upto 24 hrs by LC-MS/MS analysis", "type": "ADME, organism-based, Macaca fascicularis", "conditions": "in vivo"}, "[24]": {"experiment": "Drug concentration in athymic nude mouse plasma at 30 mg/kg, po administered as […] for 5 days and measured after 24 hrs", "type": "ADME, organism-based", "conditions": "in vivo, 144 h, BLD = below limit of detection, time 6 day"}, "[25]": {"experiment": "Intrinsic clearance in human liver microsomes at 1 uM measured upto 30 mins by LC/MS analysis", "type": "ADME, Microsome", "conditions": "read-out: CLH (converted)"}, "[26]": {"molecular_target": "Cytochrome P450 2D6 (Homo sapiens, UniProt P10635)", "sequence (P10635 whole entry)": "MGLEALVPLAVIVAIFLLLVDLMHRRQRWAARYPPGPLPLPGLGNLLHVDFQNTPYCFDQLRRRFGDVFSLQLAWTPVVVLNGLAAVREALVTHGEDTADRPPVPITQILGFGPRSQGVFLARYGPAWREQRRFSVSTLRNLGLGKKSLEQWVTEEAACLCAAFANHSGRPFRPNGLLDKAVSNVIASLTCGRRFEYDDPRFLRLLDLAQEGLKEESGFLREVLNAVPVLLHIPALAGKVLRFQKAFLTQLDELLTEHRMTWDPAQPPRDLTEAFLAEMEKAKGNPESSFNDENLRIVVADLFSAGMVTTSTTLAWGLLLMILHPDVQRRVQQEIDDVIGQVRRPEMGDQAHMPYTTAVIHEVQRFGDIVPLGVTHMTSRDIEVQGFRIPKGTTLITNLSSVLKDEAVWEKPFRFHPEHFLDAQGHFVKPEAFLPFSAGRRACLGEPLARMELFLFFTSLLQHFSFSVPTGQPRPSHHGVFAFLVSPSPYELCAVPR", "experiment": "Inhibition of CYP2D6 in human liver microsomes using bufuralol as substrate in presence of NADPH by LC-MS/MS analysis", "type": "ADME, Microsome"}, "[27]": {"experiment": "In vivo inhibition of CDK2 in athymic nude mouse assessed as reduction in retinoblastoma protein phosphorylation at 30 mg/kg, po administered once daily for 5 days and measured after 24 hrs relative to control", "type": "functional", "conditions": "144 h, time 6 day"}, "[28]": {"experiment": "Hepatic blood flow in Sprague-Dawley rat at 0.5 mg/kg, iv administered as cassette dose and measured upto 24 hrs by LC-MS/MS analysis", "type": "ADME, organism-based", "conditions": "in vivo"}, "[29]": {"experiment": "Oral bioavailability in cynomolgus monkey at 2 mg/kg administered as cassette dose and measured upto 24 hrs by LC-MS/MS analysis", "type": "ADME, organism-based, Macaca fascicularis", "conditions": "in vivo"}, "[30]": {"molecular_target": "T3, Cytochrome P450 2C8 (Homo sapiens, UniProt P10632)", "T3 sequence (P10632 whole entry)": "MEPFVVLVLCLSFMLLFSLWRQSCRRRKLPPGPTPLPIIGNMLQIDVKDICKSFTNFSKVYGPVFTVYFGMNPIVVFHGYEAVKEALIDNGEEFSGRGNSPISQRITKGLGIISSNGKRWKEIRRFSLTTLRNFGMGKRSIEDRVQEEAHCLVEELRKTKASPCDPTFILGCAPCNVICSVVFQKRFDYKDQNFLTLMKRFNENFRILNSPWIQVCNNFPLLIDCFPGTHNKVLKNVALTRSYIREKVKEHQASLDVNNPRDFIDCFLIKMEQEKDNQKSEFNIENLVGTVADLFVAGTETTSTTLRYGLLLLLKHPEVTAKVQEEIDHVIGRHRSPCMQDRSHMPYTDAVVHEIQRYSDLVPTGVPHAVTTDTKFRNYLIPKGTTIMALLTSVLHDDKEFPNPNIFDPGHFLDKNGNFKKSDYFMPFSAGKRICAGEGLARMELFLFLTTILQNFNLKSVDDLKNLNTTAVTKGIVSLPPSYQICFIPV", "experiment": "Inhibition of CYP2C8 in human liver microsomes using amodiaquine as substrate in presence of NADPH by LC-MS/MS analysis", "type": "ADME, Microsome"}}, "data": [{"smiles": "CC(C)(O)Cn1cc(-c2nc(NC3CCN(S(=O)(=O)C4CC4)CC3)ncc2C(F)(F)F)cn1", "values": [{"measurement": "Vd", "setting": "[1]", "value": 0.4, "unit": "L/kg"}, {"measurement": "Activity", "setting": "[2]", "value": "Non-Toxic"}, {"measurement": "Activity", "setting": "[3]", "value": "Non-Toxic"}, {"measurement": "Cmax", "setting": "[4]", "value": 757, "unit": "nM"}, {"measurement": "fraction unbound at 2 h", "setting": "[5]", "value": 0.12}, {"measurement": "Papp A→B at 2 h, 50 µM", "setting": "[6]", "value": 13, "unit": "×10⁻⁶ cm/s"}, {"measurement": "inhibition at 10 µM", "setting": "[7]", "value": 6.6, "unit": "%"}, {"measurement": "Cmax", "setting": "[8]", "value": 962, "unit": "nM"}, {"measurement": "inhibition in vivo at 30 mg/kg", "setting": "[9]", "value": 38, "unit": "%"}, {"measurement": "IC50", "setting": "[10]", "value": "> 25", "unit": "µM"}, {"measurement": "QH", "setting": "[11]", "value": 9, "unit": "%"}, {"measurement": "Activity", "setting": "[12]", "value": "Non-Toxic"}, {"measurement": "half-life", "setting": "[13]", "value": 120, "unit": "min"}, {"measurement": "IC50", "setting": "[14]", "value": "> 25", "unit": "µM"}, {"measurement": "bioavailability", "setting": "[15]", "value": 51, "unit": "%"}, {"measurement": "solubility", "setting": "[16]", "value": "> 400", "unit": "µg/mL"}, {"measurement": "IC50", "setting": "[17]", "value": "> 25", "unit": "µM"}, {"measurement": "Vd", "setting": "[18]", "value": 1.8, "unit": "L/kg"}, {"measurement": "IC50", "setting": "[19]", "value": "> 25", "unit": "µM"}, {"measurement": "AUC at 24 h", "setting": "[20]", "value": 5.65, "unit": "µM·h"}, {"measurement": "AUC at 24 h", "setting": "[21]", "value": 0.751, "unit": "µM·h"}, {"measurement": "IC50", "setting": "[22]", "value": "> 25", "unit": "µM"}, {"measurement": "half-life", "setting": "[23]", "value": 156, "unit": "min"}, {"measurement": "Cp", "setting": "[24]", "value": "Bld"}, {"measurement": "CLint scaled at 1 µM", "setting": "[25]", "value": 8.33, "unit": "mL/min/kg"}, {"measurement": "IC50", "setting": "[26]", "value": "> 25", "unit": "µM"}, {"measurement": "inhibition in vivo at 30 mg/kg", "setting": "[27]", "value": "~50", "unit": "%"}, {"measurement": "QH", "setting": "[28]", "value": 130, "unit": "%"}, {"measurement": "bioavailability", "setting": "[29]", "value": 21, "unit": "%"}, {"measurement": "IC50", "setting": "[30]", "value": "> 25", "unit": "µM"}]}]}
